Read-outs that look alike come from different tables or passages of the source.
What was measured:
[1] = tested on: Human Pancreatic Cancer Cell Line Panc1; test: Cell death assay (propidium iodide/Hoechst) in Panc1 cells with or without camptothecin; type: cell-based; conditions: 72 hours, % cell death by propidium iodide/Hoechst
Method: When RL-cells are exposed to isoxazolidine compounds of the present invention, the inhibitors show a dose-dependent cell-killing in the Alamar blue cytoxicity assay with IC50 values of from about 100 μM to about 1 μM (See Examples). When Panc1 cells are exposed to the isoxazolidine compounds of the present invention in combination with camptothecin, the inhibitors show a synergistic dose-dependent cell killing in the propidium iodide exclusion cell survival assay with IC50 values of from about 100 μM to about 1 μM (See Examples).
• 1) Compounds were serially diluted in DMSO from a 9 mM stock to a final concentration of 0.004 mM in a 96 well plate. • 2) Assay plates were prepared by diluting compounds 310 fold into 150 ul of medium containing 10,000 cells/well, with or without 3 uM Camptothecin, resulting in a final DMSO concentration of 0.3% and a compound concentration range from 29 uM to […] for each compound. • 3) Assay plates were incubated at 37 C, 5% CO2 for 72 hours. • 4) After 72 hours, propidium iodide and Hoechst dye were added to each well according to manufacturer's instruction. • 5) Plates were imaged on a fluorescence microscope at wavelengths Ex560/Em650 (Propidium iodide) and Ex360/Em465 (Hoechst) • 6) MetaMorph imaging software was used to determine % cell death by dividing the number of propidium iodide stained cells (dead cells) by the number of Hoechst stained cells (all cells), multipled by 100, in each field.
Panc1 invitro cellular data is presented below for various compounds of the invention.

[2] = target: Bcl-2 (Homo sapiens, UniProt P10415); test: Bcl-2 binding affinity analysis (fluorescence polarization binding assay)
Outline: (§1)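 FP readout; quantitative in vitro binding format; same method applied to both anti-apoptotic proteins.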

[3] = target: Bcl-xL (Homo sapiens, UniProt Q07817); test: Bcl-xL binding affinity analysis (fluorescence polarization binding assay); design: scale not given here
Outline: as §1

[4] = Homo sapiens, PANC-1, without camptothecin, read-out: Panc1 − Cpt IC50
[5] = with 3 uM Camptothecin, read-out: Panc1 + Cpt IC50

Bcl-2, sequence (P10415 whole entry): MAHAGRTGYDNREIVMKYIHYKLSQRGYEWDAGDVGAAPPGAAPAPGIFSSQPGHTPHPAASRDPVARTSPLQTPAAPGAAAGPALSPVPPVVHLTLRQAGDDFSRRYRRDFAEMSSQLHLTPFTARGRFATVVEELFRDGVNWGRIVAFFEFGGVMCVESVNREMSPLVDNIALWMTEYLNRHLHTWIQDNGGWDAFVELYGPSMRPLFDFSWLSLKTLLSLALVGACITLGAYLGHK
Bcl-xL, sequence (Q07817 whole entry): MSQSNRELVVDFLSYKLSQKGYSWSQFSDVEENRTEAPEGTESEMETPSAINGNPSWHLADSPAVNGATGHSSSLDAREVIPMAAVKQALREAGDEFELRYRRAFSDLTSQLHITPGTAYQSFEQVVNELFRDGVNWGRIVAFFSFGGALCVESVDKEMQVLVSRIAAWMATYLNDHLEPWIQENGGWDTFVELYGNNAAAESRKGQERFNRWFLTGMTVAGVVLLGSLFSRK

| Ki [2] [nM] | Bcl-XL binding affinity Ki [3] | SMILES | IC50 [1, 4] [nM] | IC50 [1, 5] [nM] | IC50 ([1]; without camptothecin, read-out: Panc1 − Cpt IC50) [nM] |
| --- | --- | --- | --- | --- | --- |
| < 800 | ♯ | COc1c(CN2O[C@@H](CO)[C@@H]([C@H](C)O)[C@H]2C(=O)N[C@H]2C[C@H]3C[C@@H]([C@@H]2C)C3(C)C)cccc1-c1cccc(C(=O)N[C@H](CN(C)C)CC(C)(C)C)c1 [Compound 479] | 1800 to 2500 | 1300 to 1800 |  |
| < 800 | ♯ | C[C@@H]1[C@@H](NC(=O)[C@@H]2C([C@H](C)O)[C@H](CO)ON2Cc2cccc(CN(CCN(C)C)Cc3ccncc3)c2)C[C@H]2C[C@@H]1C2(C)C (stereo partly drawn) [Compound 389] | 1800 to 2500 | 1300 to 1800 |  |
| < 800 | ♯ | CCN1CCCC1CN(Cc1ccccc1)Cc1cccc(CN2OC(CO)C(C(C)O)C2C(=O)NC2CC3CC(C2C)C3(C)C)c1 (stereo not drawn) [Compound 426] | > 2500 | > 2500 |  |
| < 800 | ♯ | CC(O)C1C(CO)ON(Cc2cccc(CN(CCN(C)C)Cc3ccc(F)cc3)c2)C1C(=O)NC1CC2CC(C1C)C2(C)C (stereo not drawn) [Compound 376] | 1800 to 2500 | 1300 to 1800 |  |
| < 800 | ♯ | CCOc1c(CN2O[C@@H](CO)[C@@H]([C@H](C)O)[C@H]2C(=O)N[C@H]2C[C@H]3C[C@@H]([C@@H]2C)C3(C)C)cccc1-c1cccc(C(=O)N[C@H](CC(C)C)CN(C)C)c1 [Compound 494] | > 2500 | > 2500 |  |
| < 800 | ♯ | CC(O)C1C(CO)ON(Cc2cccc(CN(CCN3CCOCC3)Cc3ccccc3)c2)C1C(=O)NC1CC2CC(C1C)C2(C)C (stereo not drawn) [Compound 434] | > 2500 | > 2500 |  |
| < 800 | ♯ | CC(O)C1C(CO)ON(Cc2cccc(CNC(Cc3ccccc3)CN(C)C)c2)C1C(=O)NC1CC2CC(C1C)C2(C)C (stereo not drawn) [Compound 454] | > 2500 | > 2500 |  |
| < 800 | ♯ | C[C@@H]1[C@@H](NC(=O)[C@@H]2[C@H]([C@H](C)O)[C@H](CO)ON2Cc2cccc(N(CCc3ccccc3)CCN(C)C)c2)C[C@H]2C[C@@H]1C2(C)C [Compound 578] | > 2500 | 1800 to 2500 |  |
| < 800 | ♯ | COc1ccc(CN(CCN(C)C)Cc2cccc(CN3OC(CO)C(C(C)O)C3C(=O)NC3CC4CC(C3C)C4(C)C)c2)cc1 (stereo not drawn) [Compound 387] | > 2500 | > 2500 |  |
| < 800 | ♯ | CC(C)C(CN(C)C)NCc1cccc(CN2OC(CO)C(C(C)O)C2C(=O)NC2CC3CC(C2C)C3(C)C)c1 (stereo not drawn) [Compound 462] | > 2500 | > 2500 |  |
| < 800 | ♯ | COc1c(CN2O[C@@H](CO)[C@@H]([C@H](C)O)[C@H]2C(=O)N[C@H]2C[C@H]3C[C@@H]([C@@H]2C)C3(C)C)cccc1-c1cccc(C(=O)NCCN(C)C)c1 [Compound 165] |  |  |  |
| 800 to 6000 | ♯ | C[C@H](O)[C@@H]1[C@H](CO)ON(Cc2cccc(C#CCNC(=O)c3ccccc3)c2)[C@@H]1C(=O)N[C@H]1C[C@H]2CC([C@@H]1C)C2(C)C [Compound 57] |  |  |  |
| < 800 | ♯ | C[C@@H]1[C@@H](NC(=O)[C@@H]2[C@H]([C@H](C)O)[C@H](CO)ON2Cc2cccc(-c3cccc(C(=O)N[C@H]4CCN(C)C4)c3)c2)C[C@H]2C[C@@H]1C2(C)C [Compound 126] |  |  |  |

The remaining lines, values behind:

| SMILES | Ki [2] [nM] | Bcl-XL binding affinity Ki [3] | IC50 [1, 4] [nM] | IC50 [1, 5] [nM] | IC50 ([1]; without camptothecin, read-out: Panc1 − Cpt IC50) [nM] |
| --- | --- | --- | --- | --- | --- |
| CC(O)C1C(CO)ON(Cc2cccc(CN(CCN3CCCCC3)Cc3ccccc3)c2)C1C(=O)NC1CC2CC(C1C)C2(C)C (stereo not drawn) [Compound 433] | < 800 | ♯ | > 2500 | > 2500 |  |
| CC(O)C1C(CO)ON(Cc2cccc(CN(Cc3ccccc3)C(Cc3ccccc3)CN(C)C)c2)C1C(=O)NC1CC2CC(C1C)C2(C)C (stereo not drawn) [Compound 423] | < 800 | ♯ | > 2500 | > 2500 |  |
| C[C@@H]1[C@@H](NC(=O)[C@@H]2C([C@H](C)O)[C@H](CO)ON2Cc2cccc(CN(Cc3ccccc3Br)[C@H](CN(C)C)C(C)(C)C)c2)C[C@H]2C[C@@H]1C2(C)C (stereo partly drawn) [Compound 422] | < 800 | ♯ | > 2500 | 1300 to 1800 |  |
| CC(C)C[C@@H](CN(C)C)N(Cc1cccc(CN2O[C@@H](CO)C([C@H](C)O)[C@H]2C(=O)N[C@H]2C[C@H]3C[C@@H]([C@@H]2C)C3(C)C)c1)Cc1c(Cl)cccc1Cl (stereo partly drawn) [Compound 317] | < 800 | ♯ | > 2500 | > 2500 |  |
| CC(O)C1C(CO)ON(Cc2cccc(CN(CCN3CCCCCC3)Cc3ccccc3)c2)C1C(=O)NC1CC2CC(C1C)C2(C)C (stereo not drawn) [Compound 427] | < 800 | ♯ | > 2500 | > 2500 |  |
| CC(O)C1C(CO)ON(Cc2cccc(CNC(CN(C)C)CC(C)(C)C)c2)C1C(=O)NC1CC2CC(C1C)C2(C)C (stereo not drawn) [Compound 455] | < 800 | ♯ | > 2500 | > 2500 |  |
| CC(C)C(CN(C)C)NCc1cccc(CN2OC(CO)C(C(C)O)C2C(=O)NC2CC3CC(C2C)C3(C)C)c1 (stereo not drawn) [Compound 463] | < 800 | ♯ |  |  | > 2500 |
| COc1ccc(COc2c(CN3O[C@@H](CO)[C@@H]([C@H](C)O)[C@H]3C(=O)N[C@H]3C[C@H]4C[C@@H]([C@@H]3C)C4(C)C)cccc2-c2ccc(C(=O)N(C)C)cc2)cc1 [Compound 166] | < 800 | ♯ | > 2500 | < 1300 |  |
| CNC(=O)c1ccccc1-c1cccc(CN2O[C@@H](CO)[C@@H]([C@H](C)O)[C@H]2C(=O)N[C@H]2C[C@H]3C[C@@H]([C@@H]2C)C3(C)C)c1 [Compound 89] |  |  | 1800 to 2500 | 1300 to 1800 |  |
| CCC(C)C(CN(C)C)N(Cc1cccc(CN2OC(CO)C(C(C)O)C2C(=O)NC2CC3CC(C2C)C3(C)C)c1)Cc1ccccc1Br (stereo not drawn) [Compound 416] | < 800 | ♯ | > 2500 | > 2500 |  |
| C[C@@H]1[C@@H](NC(=O)[C@@H]2[C@H]([C@H](C)O)[C@H](CO)ON2Cc2cccc(C#CC3(NC(=O)C4CCN(C)CC4)CCCCC3)c2)CC2C[C@@H]1C2(C)C [Compound 90] |  |  | > 2500 | 1300 to 1800 |  |
| CC(C)C[C@H](CN(C)C)NC(=O)c1cccc(-c2cccc(CN3O[C@@H](CO)[C@@H]([C@H](C)O)[C@H]3C(=O)N[C@H]3C[C@H]4C[C@@H]([C@@H]3C)C4(C)C)c2)c1 [Compound 99] | 800 to 6000 | ♯♯ |  |  |  |
| CC(C)C[C@@H](CN(C)C)N(Cc1ccccc1)Cc1cccc(CN2O[C@@H](CO)[C@@H]([C@H](C)O)[C@H]2C(=O)NCc2cccc3ccccc23)c1 [Compound 532] | 800 to 6000 | ♯ |  |  |  |
| C[C@@H]1[C@@H](NC(=O)[C@@H]2[C@H]([C@H](C)O)[C@H](CO)ON2Cc2cccc(N3CCN(C(=S)NCCc4ccccc4)CC3)c2)C[C@H]2C[C@@H]1C2(C)C [Compound 266] | < 800 | ♯ |  |  |  |
| C[C@@H]1[C@@H](NC(=O)[C@@H]2[C@H]([C@H](C)O)[C@H](CO)ON2CCCCN(CCN(C)C)Cc2ccccc2F)C[C@H]2C[C@@H]1C2(C)C [Compound 550] | 800 to 6000 | ♯ |  |  |  |
| C[C@@H]1[C@@H](NC(=O)[C@@H]2C([C@H](C)O)[C@H](CO)ON2Cc2cccc(CN(CCN(C)C)Cc3ccccc3N3CCCCC3)c2)C[C@H]2C[C@@H]1C2(C)C (stereo partly drawn) [Compound 410] | < 800 | ♯ |  |  |  |
| CC(C)C[C@@H](CN(C)C)NC(=O)c1cccc(-c2cccc(CN3O[C@@H](CO)[C@@H]([C@H](C)O)[C@H]3C(=O)N[C@H]3C[C@H]4C[C@@H]([C@@H]3C)C4(C)C)c2)c1 [Compound 97] | 800 to 6000 | ♯♯ |  |  |  |
| CC(O)C1C(CO)ON(Cc2cccc(CN(CCN(C)C)C(C)(C)c3ccccc3)c2)C1C(=O)NC1CC2CC(C1C)C2(C)C (stereo not drawn) [Compound 475] | < 800 | ♯ |  |  |  |
| C[C@H](O)[C@@H]1[C@H](CO)ON(Cc2cccc(CN(CCN(C)C)Cc3ccccc3)c2)[C@@H]1C(=O)NC1C[C@H]2C[C@@H]([C@@H]1C)C2(C)C (stereo partly drawn) [Compound 221] | < 800 | ♯ |  |  |  |
| CC(O)C1C(CO)ON(Cc2cccc(CN(CCN(C)C)Cc3ccccc3N3CCN(C)CC3)c2)C1C(=O)NC1CC2CC(C1C)C2(C)C (stereo not drawn) [Compound 385] | < 800 | ♯ |  |  |  |
| CC(O)C1C(CO)ON(Cc2cccc(CN3CCC(c4ccccc4)C3CN(C)C)c2)C1C(=O)NC1CC2CC(C1C)C2(C)C (stereo not drawn) [Compound 450] | < 800 | ♯ |  |  |  |

Source: US7851637B2, “Compounds and methods for inhibiting the interaction of BCL proteins with binding partners” (Infinity Pharmaceuticals, Inc., priority 2004, dated 2010)
